Measured values published in patent publication US8097625B2, “Combination of sedative and a neurotransmitter modulator, and methods for improving sleep quality and treating depression” (priority 2003, dated 2012).

What was measured:
Type in all cases: in vivo, human
[1] = DREAMDD clinical study: subject disposition; settings: of 270 randomized; 3 mg nightly + fluoxetine
Text: Subjects who discontinued early for any reason were replaced.
Subject Disposition and Drug Exposure: Subject disposition was summarized and presented for the number and percentage of subjects, who were screened, randomized, received treatment, completed the study, and discontinued early (including reasons for discontinuations). For each subject, the number of doses taken was computed from the study drug dispensation and accountability CRF records obtained at each visit, assuming that subjects took their study drug medication evenly throughout the between-visits periods. The extent of exposure to the double-blind medication as well as the number of doses taken during the double-blind treatment period was summarized with descriptive statistics and presented by treatment group.

[2] = test system: subjects with insomnia related to major depressive disorder; assay: DREAMDD clinical study: subjective sleep and daytime function (IVRS sleep diary); settings: for Subjective Sleep Latency, Mean (SD) / Subjective Sleep Latency, Median / Subjective Total Sleep Time, Mean (SD) / Subjective Total Sleep Time, Median / Subjective Wake Time After Sleep Onset (WASO), Mean (SD) / Subjective Wake Time After Sleep Onset (WASO), Median: 3 mg nightly + fluoxetine, ITT
Experimental: Depression Response to Eszopiclone in Adults With Major Depressive Disorder (DREAMDD): A Randomized, Double-Blind, Placebo-Controlled, Parallel-Group, 8-Week, Safety and Efficacy Study of Eszopiclone 3 mg Compared to Placebo in Subjects with Insomnia Related to Major Depressive Disorder
This study was a double-blind randomized, placebo-controlled, parallel group study. […] All subjects must satisfy DSM-IV criteria for insomnia related to major depression.
In addition, subjects were randomized at Visit 3 (end of baseline) to treatment with one of the following nightly (at bedtime): eszopiclone (3 mg) or matching placebo.
Primary Analysis: The primary analysis was conducted using the ITT population for the primary efficacy variable, mean WASO during the first week of double-blind medication. This endpoint was computed by averaging the daily WASO values obtained via IVRS from Visit 3 to Visit 4. The analysis was conducted using an analysis of variance model (ANOVA) with treatment and site as fixed effects. The analysis was performed on rank-transformed data, using the SAS MIXED procedure. The cumulative distribution function by treatment was plotted.
Other Secondary Analyses: Analysis of the secondary subjective sleep parameters, the 1, 2, 3, 4, 6, and 8 week post-randomization and double-blind averages of WASO (except week 1 average, which is the primary efficacy endpoint), TST, SL, mean number of awakenings, depth and quality of sleep, daytime alertness, ability to concentrate, physical well-being and ability to function was conducted on rank-transformed data using the same method as for the primary analysis.
Sleep Diary Test: Patients are to call between 6 a.m. and 10 a.m. and answer the following questions. 1) Did you take study medication last night? 2) What time did you go to bed to go to sleep last night? 3) Did you fall asleep last night? (If No, go to question 10) 4) How long did it take you to fall asleep last night? Hours+Minutes? 5) Last night, did you wake up during the night, after falling asleep? 5a) How many times, did you wake up after falling asleep? 5b) After falling asleep for the first time, how much total time did you spend awake during the night? Hours+Minutes? 6) How long did you sleep last night? Hours+Minutes? 7) What time did you get out of bed to rise for the day? 8) What number best describes the quality of your sleep last night? (0=poor and 10=excellent) 9) How would you describe the depth of your sleep last night? (0=very light and 10=very deep) 10) What number best describes how you generally felt yesterday during the day? (0=very sleepy and 10=wide awake and alert) 11) What number best describes your ability to concentrate or think clearly during the day yesterday (0=poor, 10=excellent) 12) What number best describes your sense of physical well being yesterday? (0=poor, 10=excellent) 13) How would you describe your ability to function during the day yesterday? (0=poor and 10=excellent)
Methods: Patients (n=545) met DSM-IV criteria for MDD and insomnia, including reported sleep latency (SL)≧30 min (median 73 min), wake time after sleep onset (WASO) ≧45 min (median 90 min), and total sleep time (TST)≦6.5h (median 294 min). All patients received fluoxetine QAM, and were randomly assigned to double-blind treatment with eszopiclone 3 mg or placebo QHS for 8 weeks. Subjective sleep and daytime function were assessed weekly.

[3] = DREAMDD clinical study: tolerability and adverse events; settings: 8 weeks
Experimental: Safety was assessed by physical examinations, a standard 12-lead ECG, vital signs, clinical laboratory assessments and AE reporting.
Adverse Events (AEs): Subjects were queried in a non-leading manner, without specific prompting (e.g., “How are you feeling?”) to assess whether they are suffering from any adverse events.
Adverse Events: All adverse experiences were coded using the COSTART dictionary (Coding Symbols for a thesaurus of Adverse Event Terms; version 5.0, 1995). Treatment emergent adverse experiences was defined as 1) AEs that occurred or worsened (increased in severity and/or frequency) on or after the first dose of study medication, 2) AEs with a missing start data and a stop date on or after the first dose of study medication, or 3) AEs with both a missing start and stop date. Treatment emergent AEs was summarized by treatment and by COSTART body system and preferred term. AEs that occurred within 14 days after treatment discontinuation was considered treatment-emergent AEs.

[4] = each treatment week, p<0.03, 3 mg QHS + fluoxetine QAM, 8 weeks

With `CN1CCN(C(=O)OC2c3nccnc3C(=O)N2c2ccc(Cl)cn2)CC1` (single isomer, unassigned; (+)) [Eszopiclone, (+) 6-(5-chloro-2-pyridinyl)-6,7-dihydro-7-oxo-5H-pyrrolo[3,4b]pyrazin-5-yl 4-methylpiperazine-1-carboxylate] the “Subject Disposition: Discontinued, AE” value [1] was 17 (6.3) n (%), the “Subject Disposition: Discontinued, Treatment for Insomnia Failure” value [1] was 2 (0.7) n (%) and the “Subjective Sleep Latency, Mean (SD)” value ([2]; Double-Blind Average) was 53.0 (52.6) Minutes. The “Subjective Sleep Latency, Median” value ([2]; Double-Blind Average) was 39.3 min, the “Subjective Total Sleep Time, Mean (SD)” value ([2]; Double-Blind Average) was 395.5 (66.9) Minutes and the “Subjective Total Sleep Time, Median” value ([2]; Double-Blind Average) was 400.0 min. For the same molecule, the “Subjective Wake Time After Sleep Onset (WASO), Mean (SD)” value ([2]; Double-Blind Average) was 72.6 (58.7) Minutes, the “Subjective Wake Time After Sleep Onset (WASO), Median” value ([2]; Double-Blind Average) was 57.4 min and the “Subjective Sleep Latency, Mean (SD)” value ([2]; Week 1) was 62.6 (61.0) Minutes. The “Subjective Sleep Latency, Median” value ([2]; Week 1) was 43.3 min, the “Subjective Total Sleep Time, Mean (SD)” value ([2]; Week 1) was 375.9 (76.5) Minutes and the “Subjective Total Sleep Time, Median” value ([2]; Week 1) was 380.0 min. For the same molecule, the “Subjective Sleep Latency, Mean (SD)” value ([2]; Week 2) was 45.0 (52.2) Minutes, the “Subjective Sleep Latency, Median” value ([2]; Week 2) was 30.0 min and the “Subjective Total Sleep Time, Mean (SD)” value ([2]; Week 2) was 393.6 (103.0) Minutes. For the same molecule, the “Subjective Total Sleep Time, Median” value ([2]; Week 2) was 397.5 min, the “Subjective Sleep Latency, Mean (SD)” value ([2]; Week 3) was 54.1 (100.9) Minutes and the “Subjective Sleep Latency, Median” value ([2]; Week 3) was 25.0 min. The “Subjective Total Sleep Time, Mean (SD)” value ([2]; Week 3) was 397.3 (88.1) Minutes, the “Subjective Total Sleep Time, Median” value ([2]; Week 3) was 405.0 min and the “Subjective Sleep Latency, Mean (SD)” value ([2]; Week 4) was 40.5 (50.5) Minutes. For the same molecule, the “Subjective Sleep Latency, Median” value ([2]; Week 4) was 24.2 min, the “Subjective Total Sleep Time, Mean (SD)” value ([2]; Week 4) was 395.6 (87.3) Minutes and the “Subjective Total Sleep Time, Median” value ([2]; Week 4) was 390.0 min. The “Subjective Wake Time After Sleep Onset (WASO), Mean (SD)” value ([2]; Week 4) was 71.4 (80.3) Minutes, the “Subjective Wake Time After Sleep Onset (WASO), Median” value ([2]; Week 4) was 42.5 min and the “Subjective Sleep Latency, Mean (SD)” value ([2]; Week 6) was 43.8 (77.3) Minutes. The “Subjective Sleep Latency, Median” value ([2]; Week 6) was 20.0 min, the “Subjective Total Sleep Time, Mean (SD)” value ([2]; Week 6) was 408.5 (84.3) Minutes and the “Subjective Total Sleep Time, Median” value ([2]; Week 6) was 420.0 min. For the same molecule, the “Subjective Wake Time After Sleep Onset (WASO), Mean (SD)” value ([2]; Week 6) was 76.5 (88.1) Minutes, the “Subjective Wake Time After Sleep Onset (WASO), Median” value ([2]; Week 6) was 46.3 min and the “Subjective Sleep Latency, Mean (SD)” value ([2]; Week 8) was 42.4 (42.3) Minutes. For the same molecule, the “Subjective Sleep Latency, Median” value ([2]; Week 8) was 30.0 min, the “Subjective Total Sleep Time, Mean (SD)” value ([2]; Week 8) was 405.9 (80.6) Minutes and the “Subjective Total Sleep Time, Median” value ([2]; Week 8) was 411.4 min. The “Subjective Wake Time After Sleep Onset (WASO), Mean (SD)” value ([2]; Week 8) was 63.8 (74.1) Minutes, the “Subjective Wake Time After Sleep Onset (WASO), Median” value ([2]; Week 8) was 43.1 min and the “WASO compared to placebo” value ([2]; Weeks 1, 3-5, and 7-8, p<0.04, 3 mg QHS + fluoxetine QAM) was “significantly lower”. The “ratings in sleep quality and depth compared to placebo” value ([2]; across the treatment period, p<0.005, 3 mg QHS + fluoxetine QAM) was “higher ratings”, the “sleep latency (SL) compared to placebo” value [2, 4] was “significantly lower” and the “total sleep time (TST) compared to placebo” value [2, 4] was “greater”. For the same molecule, the improvement in sleep ([2]; patients with depression-related secondary insomnia, co-administration with fluoxetine) was “rapid and sustained improvement in sleep”, the “ratings of daytime alertness, ability to concentrate, and well-being compared to placebo” value ([2]; p≦0.02, 3 mg QHS + fluoxetine QAM) was “higher ratings” and the “unpleasant taste compared to placebo” value ([3]; 3 mg QHS + fluoxetine QAM) was “more common”. For the same molecule, the “drop-outs due to AEs versus placebo” value ([3]; 3 mg nightly + fluoxetine) was “comparable” and the “tolerability of co-administration with fluoxetine” value ([3]; 3 mg nightly + fluoxetine, MDD and insomnia) was “well-tolerated”.
